Consider one cell line from the supplement of paper PMC10307832.

Assay in all cases: relative viability (nuclei count vs DMSO), 5 days (fraction); higher = more cells survive
Compound in assay [1]: CN[C@@H]1C[C@H]2O[C@@](C)([C@@H]1OC)n1c3ccccc3c3c4c(c5c6ccccc6n2c5c31)C(=O)NC4 [Staurosporine] + CS(=O)(=O)N1CCN(Cc2cc3nc(-c4cccc5[nH]ncc45)nc(N4CCOCC4)c3s2)CC1 [Pictilisib] (partner 1 µM)
Summed up:
(§1)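 Five library-drug doses in √10 steps were combined with a fixed anchor-drug dose, or a single drug was given alone, by pin tool to lung cancer cell lines in 1536-well plates the day after seeding. Nuclei were stained and counted after 5 days. Relative viability is the nuclei count in treated wells over that in vehicle wells, taken as the median of duplicate plates.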

Compound in assay [2]: O=c1[nH]cc(F)c(=O)[nH]1 [5-Fluorouracil] + COc1cc2c(Oc3ccc(NC(=O)C4(C(=O)Nc5ccc(F)cc5)CC4)cc3F)ccnc2cc1OCCCN1CCOCC1 [Foretinib] (partner 0.25 µM)
In short, it runs like this: as §1

Compound in assay [3]: CC1=C(CC(=O)O)c2cc(F)ccc2/C1=C\c1ccc([S+](C)[O-])cc1 [Sulindac] + COc1cccc2cc(-c3nc([C@H]4CC[C@H](C(=O)O)CC4)n4ncnc(N)c34)[nH]c12 [OSI-027] (partner 0.5 µM)
In short, it runs like this: as §1

Compound in assay [4]: CN[C@@H]1C[C@H]2O[C@@](C)([C@@H]1OC)n1c3ccccc3c3c4c(c5c6ccccc6n2c5c31)C(=O)NC4 [Staurosporine] + COc1cc2c(Oc3ccc(NC(=O)C4(C(=O)Nc5ccc(F)cc5)CC4)cc3F)ccnc2cc1OCCCN1CCOCC1 [Foretinib] (partner 0.25 µM)
In short, it runs like this:
as §1

Turning to UMC-11, the relative viability amounted to 0.841 in assay [1] (first compound 0.005 µM); 0.115 in assay [1] (first compound 0.01581 µM); 0.207 in assay [1] (first compound 0.05 µM); 0.101 in assay [1] (first compound 0.1581 µM); 0.0718 in assay [1] (first compound 0.5 µM); 0.983 in assay [2] (first compound 0.02 µM). In addition, the relative viability in assay [2] (first compound 0.2 µM) worked out at 0.728; in assay [2] (first compound 0.6325 µM), 0.518; in assay [2] (first compound 2 µM) it was 0.396; in assay [3] (first compound 0.08 µM), 0.624; in assay [3] (first compound 0.253 µM) it was 0.502; in assay [3] (first compound 0.8 µM), 0.371. Also, the relative viability is 0.543 in assay [3] (first compound 2.53 µM); 0.487 in assay [3] (first compound 8 µM); 1.02 in assay [4] (first compound 0.005 µM); 0.574 in assay [4] (first compound 0.01581 µM); 0.326 in assay [4] (first compound 0.05 µM); 0.116 in assay [4] (first compound 0.1581 µM). Further, the relative viability in assay [4] (first compound 0.5 µM) was found to be 0.077.
